Reference: paper PMC11350868, “A Novel Bacitracin-like Peptide from Mangrove-Isolated Bacillus paralicheniformis NNS4-3 against MRSA and Its Genomic Insights” (Antibiotics, 2024)
≈ marks a conversion by molar mass, not a printed value. Where “and” joins values, the source holds several entries; their conditions need not be identical. Equal values may be shown once. Read-outs that look alike come from different tables or passages of the source.

Experiments:
[1] = tested on: MRSA strain 1096; assay: microbe, parasite or virus in culture; format: cell-based, Staphylococcus aureus; details: strain 1096, 24 h
Experimental: (§1) The MIC and MBC of the purified peptide of NNS4-3 were determined against various strains of S. aureus. The broth microdilution method followed the guidance provided by the Clinical and Laboratory Standards Institute (CLSI). Pathogenic bacteria, such as S. aureus TISTR 517 and MRSA strains 142, 1096, and 2468, were used as test strains and cultured on MH agar at 37 °C for 18 h. A single colony of each tested bacterium was suspended in 0.85% NaCl until its turbidity reached an OD of 0.1 at 625 nm (1 × 10^8 CFU/mL). The bacterial cells were diluted to 5 × 10^6 CFU/mL using cation-adjusted Mueller Hinton broth (CAMHB). The diluted cell suspension (10 µL) was transferred to each well of a 96-well plate. With a total volume of 100 µL in each well, the purified AMP was added to each well to obtain final concentrations between 0.125 and 64 µg/mL. Standard antibiotics (vancomycin and cefoxitin) and antibiotic-free samples were used as positive and negative controls, respectively. The 96-well plate was incubated at 37 °C for 24 h. The experiment was carried out in triplicate for each strain. […] Subsequently, 100 µL of each dilution was spread on MH agar and then incubated at 37 °C for 24 h. The MBC was identified as the lowest concentration at which no bacterial colony growth was observed on the plate.

[2] = tested on: MRSA strain 142; assay: microbe, parasite or virus in culture; format: cell-based, Staphylococcus aureus; details: strain 142, 24 h
Experimental: as §1

[3] = tested on: MRSA strain 2468; assay: microbe, parasite or virus in culture; format: cell-based, Staphylococcus aureus; details: strain 2468, 24 h
Experimental: as §1

[4] = tested on: S. aureus TISTR 517; assay: microbe, parasite or virus in culture; format: cell-based, Staphylococcus aureus; details: TISTR 517, 24 h
Experimental: as §1

[5] = tested on: MRSA strain 2468; assay: Time-kill kinetics; format: cell-based, Staphylococcus aureus; details: 4× MIC; CAMHB, 37 °C
Experimental: S. aureus TISTR 517 and MRSA strain 2468 were adjusted to a cell density of 5 × 10^5 CFU/mL with CAMHB for the initial treatment. […] The reactions were conducted at 37 °C, followed by spreading the total volume onto MH agar at specific time intervals (0–24 h). Subsequently, the spread plates were incubated at 37 °C for 24 h before counting the colonies. The bacterial reduction trends were presented with a log10 scale of viable cells (logCFU/mL) versus treatment duration. The bacterial cell reduction was determined within 24 h. Each experiment was conducted in triplicate on the 96-well plates. The presence of significant differences (p-value < 0.05) was assessed by two-way ANOVA, followed by the post hoc Tukey’s test for conducting multiple comparisons between treated and non-treated samples at each time interval.

[6] = tested on: MRSA strain 2468; assay: SEM of treated cells (morphological changes); format: cell-based, Staphylococcus aureus; details: 1× MIC, 18 h incubation, 20,000× magnification
Experimental: (§2) The treatment effect of NNS4-3 AMP on tested bacterial cells was investigated by observing morphological changes under SEM. S. aureus TISTR 517 and MRSA strain 2468 were precultured in MH broth for 18 h before being centrifuged to harvest the cell pellet. Cell pellets of both strains were washed with 0.85% sterile NaCl solution 3 times to remove exopolysaccharide. The washed cells were then dispersed in CAMHB to adjust cell turbidity to 0.1 OD at 625 nm. The prepared cells were diluted to 5 × 10^5 CFU/mL with CAMHB before being treated with NNS4-3 AMP. […] The sample for SEM micrography was prepared by fixing the bacterial sample in 2.5% glutaraldehyde in 0.1 M phosphate buffer pH 7.2 for 24 h before ethanol dehydration of the sample. The complete ethanol removal from the prepared sample was conducted by a critical point drying machine (Quorum Technologies Ltd., Lewes, East Sussex, UK).

[7] = tested on: S. aureus TISTR 517; assay: SEM of treated cells (morphological changes); format: cell-based, Staphylococcus aureus; details: 1× MIC, 18 h incubation, 20,000× magnification
Experimental: as §2

[8] = Thermal stability (residual antibacterial activity); format: physicochemical; details: AMP 10 µg/mL in purified water, agar well diffusion vs MRSA strain 2468, relative to non-treated sample, mean ± SD, triplicate
Experimental: (§3) The AMP was dissolved in sterile purified water and adjusted to a final concentration of 10 µg/mL. The sensitivity of the AMP to temperatures of 60, 80, and 100 °C as well as autoclaving at 121 °C for 15 and 30 min was evaluated. The sensitivity of the AMP to proteolytic enzymes with different digesting characteristics was studied by incubating with a concentration of 1 mg/mL of proteinase K, trypsin, and α-chymotrypsin (Sigma-Aldrich, Warren, MI, USA). Surfactant compatibility of the AMP was examined by exposing the sample to 1% SDS and 1% Triton X-100 (AppliChem GmbH, Darmstadt, Germany). The propensity of the AMP for acid and base hydrolysis was examined by adjusting the pH of the solution to 1.2, 4.5, 6.8, and 7.4. After incubation, the pH of the AMP solution was neutralized to 7.4 before being assessed for antimicrobial activity. Following all treatments, the antibacterial assay using agar well diffusion against the MRSA strain 2468 was conducted in triplicate. The stability profiles are presented as the percentage of the activity relative to the untreated conditions (mean ± SD) and statistical significance was determined by the Student’s t-test at a p-value < 0.05.

[9] = Surfactant stability (residual antibacterial activity); format: physicochemical; details: AMP 10 µg/mL, agar well diffusion vs MRSA strain 2468, relative to non-treated sample, mean ± SD, triplicate
Experimental: as §3

[10] = Effect of pH on the stability (residual antibacterial activity); format: physicochemical; details: AMP 10 µg/mL, mean ± SD, triplicate
Experimental: as §3

[11] = tested on: Trypsin; details: Trypsin 1 mg/mL, AMP 10 µg/mL, agar well diffusion vs MRSA strain 2468, relative to non-treated sample, mean ± SD, triplicate
Experimental: as §3

[12] = target: α-chymotrypsin (Bos taurus, UniProt P00766); details: α-chymotrypsin 1 mg/mL, AMP 10 µg/mL, agar well diffusion vs MRSA strain 2468, relative to non-treated sample, mean ± SD, triplicate
Experimental: as §3

`CC(C)CC(NC(=O)C(N)CCCCN)C(=O)NC(CC(C)C)C(=O)NC(CCCCN)C(=O)NC(CC(=O)O)C(=O)NC(CC(C)C)C(=O)NC(Cc1ccccc1)C(=O)NC(Cc1c[nH]cn1)C(=O)NC(CC(=O)O)C(=O)NC(CC(N)=O)C(=O)O` (single isomer, unassigned) [NNS4-3 AMP] gave an MBC [1] of 4 µg/mL (≈ 3.22 µM), an MIC [1] of 1 µg/mL (≈ 0.805 µM) and an MBC [2] of 4 µg/mL (≈ 3.22 µM). It also gave an MIC [2] of 1 µg/mL (≈ 0.805 µM), an MBC [3] of 4 µg/mL (≈ 3.22 µM) and an MIC [3] of 1 µg/mL (≈ 0.805 µM). The MBC [4] was 64 µg/mL (≈ 51.5 µM), the MIC [4] was 16 µg/mL (≈ 12.9 µM) and the “time of treatment to complete elimination of viable cells” value [5] was ≤ 8 h. The “morphological changes under SEM” value [6] was “membrane disruption and pore formation”, the “morphological changes under SEM” value [7] was “cellular lysis” and the “% Residual Activity” value ([8]; 37 °C, 1 h) was 103.19 ± 3.68%. For the same compound, the “% Residual Activity” value ([8]; 37 °C, 6 h) was 100.00 ± 0.00%, the “% Residual Activity” value ([8]; 37 °C, 12 h) was 99.61 ± 6.44% and the “% Residual Activity” value ([8]; 60 °C, 1 h) was 101.82 ± 2.46%. For the same compound, the “% Residual Activity” value ([8]; 60 °C, 6 h) was 95.27 ± 4.31%, the “% Residual Activity” value ([8]; 60 °C, 12 h) was 90.47 ± 2.98 % and the “% Residual Activity” value ([8]; 80 °C, 1 h) was 97.52 ± 6.21%. The “% Residual Activity” value ([8]; 80 °C, 6 h) was 41.13 ± 35.62 %, the “% Residual Activity” value ([8]; 100 °C, 1 h) was 73.05 ± 1.57 % and the “% Residual Activity” value ([8]; 100 °C, 6 h) was 0.00 ± 0.00 %. For the same compound, the “% Residual Activity” value ([8]; 100 °C, 12 h) was 0.00 ± 0.00 %, the “% Residual Activity” value ([8]; autoclaving 121 °C, 15 psi, 15 min) was 61% and 61.83 ± 0.74 % and the “% Residual Activity” value ([8]; autoclaving 121 °C, 15 psi, 30 min) was 0.00 ± 0.00 %. For the same compound, the “% Residual Activity” value ([9]; 1% SDS, 1 h) was 87.00 ± 6.17 %, the “% Residual Activity” value ([9]; 1% SDS, 6 h) was 86.69 ± 5.39 % and the “% Residual Activity” value ([9]; 1% SDS, 12 h) was 86.25 ± 4.76 %. The “% Residual Activity” value ([9]; 1% Triton X-100, 1 h) was 104.54 ± 4.96%, the “% Residual Activity” value ([9]; 1% Triton X-100, 12 h) was 103.40 ± 3.82% and the “% Residual Activity” value ([10]; pH 1.2, 1 h, neutralized to pH 7.4 before agar well diffusion vs MRSA strain 2468, relative to non-treated sample) was 98.12 ± 2.14%. The “% Residual Activity” value ([10]; pH 1.2, 6 h, neutralized to pH 7.4 before agar well diffusion vs MRSA strain 2468, relative to non-treated sample) was 95.45 ± 0.79%, the “% Residual Activity” value ([10]; pH 1.2, 12 h, neutralized to pH 7.4 before agar well diffusion vs MRSA strain 2468, relative to non-treated sample) was 94.14 ± 3.12% and the “% Residual Activity” value ([10]; pH 4.5, 1 h, neutralized to pH 7.4 before agar well diffusion vs MRSA strain 2468, relative to non-treated sample) was 95.24 ± 3.29%. The “% Residual Activity” value ([10]; pH 4.5, 6 h, neutralized to pH 7.4 before agar well diffusion vs MRSA strain 2468, relative to non-treated sample) was 99.64 ± 2.87%, the “% Residual Activity” value ([10]; pH 4.5, 12 h, neutralized to pH 7.4 before agar well diffusion vs MRSA strain 2468, relative to non-treated sample) was 96.91 ± 2.99% and the “% Residual Activity” value ([10]; pH 6.8, 1 h, neutralized to pH 7.4 before agar well diffusion vs MRSA strain 2468, relative to non-treated sample) was 98.87 ± 2.00%. For the same compound, the “% Residual Activity” value ([10]; pH 6.8, 6 h, neutralized to pH 7.4 before agar well diffusion vs MRSA strain 2468, relative to non-treated sample) was 95.89 ± 5.00%, the “% Residual Activity” value ([10]; pH 6.8, 12 h, neutralized to pH 7.4 before agar well diffusion vs MRSA strain 2468, relative to non-treated sample) was 92.54 ± 4.14% and the “% Residual Activity” value ([10]; pH 7.4, 1 h, agar well diffusion vs MRSA strain 2468, relative to non-treated sample) was 97.80 ± 1.32%. For the same compound, the “% Residual Activity” value ([10]; pH 7.4, 6 h, agar well diffusion vs MRSA strain 2468, relative to non-treated sample) was 94.82 ± 2.80%, the “% Residual Activity” value ([10]; pH 7.4, 12 h, agar well diffusion vs MRSA strain 2468, relative to non-treated sample) was 93.29 ± 1.89% and the “% Residual Activity” value ([11]; 1 h) was 95.57 ± 4.01%. The “% Residual Activity” value ([11]; 6 h) was 95.66 ± 2.62%, the “% Residual Activity” value ([11]; 12 h) was 93.81 ± 3.31% and the “% Residual Activity” value ([12]; 1 h) was 96.65 ± 2.14%. For the same compound, the “% Residual Activity” value ([12]; 6 h) was 95.15 ± 6.64% and the “% Residual Activity” value ([12]; 12 h) was 97.06 ± 0.54%.
